Values belong to the compound of their own block, whether it stands above or below them.
How the values were obtained:
[1] = target: T1, Protein smoothened (Homo sapiens, UniProt Q99835); test: Inhibition of Bodipy-labelled cyclopamine binding to Smo expressed in COS-1 cells at 10 uM in presence of 2% FBS after 4 to 6 hrs by FACS flow cytometric analysis; format: cell-based
[2] = tested on: Shh Light II; test: Inhibition of Shh signaling in mouse Shh-light2 cells at 10 uM by Gli-dependent firefly luciferase reporter gene assay; format: functional
[3] = target: T1, Protein smoothened; test: Displacement of Bodipy-labelled cyclopamine from Smo expressed in COS-1 cells in presence of 2% FBS after 4 to 6 hrs by FACS flow cytometric analysis; format: cell-based
[4] = target: T1, Protein smoothened; test: Inhibition of Bodipy-labelled cyclopamine binding to Smo expressed in COS-1 cells in presence of 20% NHS after 4 to 6 hrs by FACS flow cytometric analysis; format: cell-based
[5] = Lipophilicity, log D of the compound; format: physicochemical; details: octanol/water
[6] = target: CYP2C9 (Homo sapiens, UniProt P11712); test: Inhibition of CYP2C9 at 10 uM; format: ADME
[7] = Intrinsic clearance in rat liver microsomes assessed per mg of protein; format: ADME, Microsome
[8] = target: CYP3A4 (Homo sapiens, UniProt P08684); test: Inhibition of CYP3A4 at 10 uM; format: ADME
[9] = tested on: Shh Light II; test: Inhibition of Shh signaling in mouse Shh-light2 cells by Gli-dependent firefly luciferase reporter gene assay; format: functional, cell-based
[10] = target: T1, Protein smoothened; test: Inhibition of Bodipy-labelled cyclopamine binding to Smo expressed in COS-1 cells at 25 uM in presence of 20% NHS after 4 to 6 hrs by FACS flow cytometric analysis; format: cell-based
[11] = Half life in dog; format: ADME, organism-based, Canis lupus familiaris; details: in vivo
[12] = Intrinsic clearance in human liver microsomes assessed per mg of protein; format: ADME, Microsome
[13] = Clearance in dog; format: ADME, organism-based, Canis lupus familiaris; details: in vivo
[14] = Inhibition of cytochrome P450 at 30 uM; format: ADME
[15] = Induction of cytochrome P450 at 30 uM; format: ADME
[16] = Clearance in rat; format: ADME, organism-based; details: in vivo
[17] = Terminal half life in rat; format: ADME, organism-based; details: in vivo, read-out: beta t1/2 (converted)
[18] = target: T1, Protein smoothened; test: Inhibition of Bodipy-labelled cyclopamine binding to Smo expressed in COS-1 cells at 2.5 uM in presence of 2% FBS after 4 to 6 hrs by FACS flow cytometric analysis; format: cell-based
[19] = target: T1, Protein smoothened; test: Inhibition of Bodipy-labelled cyclopamine binding to Smo expressed in COS-1 cells at 4 uM in presence of 2% FBS after 4 to 6 hrs by FACS flow cytometric analysis; format: cell-based
[20] = Oral bioavailability in rat; format: ADME, organism-based; details: in vivo
[21] = Intrinsic clearance in dog liver microsomes assessed per mg of protein; format: ADME, Canis lupus familiaris, Microsome
[22] = target: Potassium voltage-gated channel subfamily H member 2 (hERG), Homo sapiens; test: Inhibition of human ERG
[23] = target: Cytochrome P450 3A4 (Homo sapiens, UniProt P08684); test: Inhibition of CYP3A4; format: ADME
[24] = target: Cytochrome P450 2D6 (Homo sapiens, UniProt P10635); test: Inhibition of CYP2D6; format: ADME
[25] = target: Cytochrome P450 2C9 (Homo sapiens, UniProt P11712); test: Inhibition of CYP2C9; format: ADME
[26] = Fraction unbound in rat plasma; format: ADME, cell-free
[27] = Fraction unbound in human plasma; format: ADME, cell-free
[28] = tested on: Potassium voltage-gated channel subfamily H member 2 (hERG), Homo sapiens; test: Inhibition of human ERG at 10 uM
[29] = tested on: Shh Light II; test: Inhibition of Shh signaling in mouse Shh-light2 cells at 20 uM by Gli-dependent firefly luciferase reporter gene assay; format: functional
[30] = target: T1, Protein smoothened; test: Inhibition of Bodipy-labelled cyclopamine binding to Smo expressed in COS-1 cells at 2 uM in presence of 2% FBS after 4 to 6 hrs by FACS flow cytometric analysis; format: cell-based

T1 sequence (Q99835 whole entry): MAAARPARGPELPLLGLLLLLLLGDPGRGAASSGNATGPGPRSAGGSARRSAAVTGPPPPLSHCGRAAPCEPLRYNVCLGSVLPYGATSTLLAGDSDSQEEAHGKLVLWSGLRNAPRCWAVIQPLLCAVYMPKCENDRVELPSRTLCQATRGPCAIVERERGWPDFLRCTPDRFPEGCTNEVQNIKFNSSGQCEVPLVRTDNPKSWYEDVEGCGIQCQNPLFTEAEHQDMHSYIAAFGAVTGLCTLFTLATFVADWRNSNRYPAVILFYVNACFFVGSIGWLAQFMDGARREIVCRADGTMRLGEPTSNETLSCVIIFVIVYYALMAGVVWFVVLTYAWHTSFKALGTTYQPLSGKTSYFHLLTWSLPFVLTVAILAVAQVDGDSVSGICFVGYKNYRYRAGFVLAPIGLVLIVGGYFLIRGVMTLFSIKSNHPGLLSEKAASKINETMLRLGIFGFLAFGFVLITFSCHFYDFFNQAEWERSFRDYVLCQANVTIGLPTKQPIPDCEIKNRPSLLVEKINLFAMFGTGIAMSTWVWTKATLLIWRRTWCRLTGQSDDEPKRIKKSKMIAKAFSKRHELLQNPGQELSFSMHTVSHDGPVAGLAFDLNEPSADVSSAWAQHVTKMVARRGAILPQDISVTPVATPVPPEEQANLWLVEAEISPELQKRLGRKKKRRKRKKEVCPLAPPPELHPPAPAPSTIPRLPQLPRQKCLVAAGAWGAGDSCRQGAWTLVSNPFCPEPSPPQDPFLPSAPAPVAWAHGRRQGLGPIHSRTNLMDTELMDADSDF
Sequence of CYP3A4 (P08684 whole entry): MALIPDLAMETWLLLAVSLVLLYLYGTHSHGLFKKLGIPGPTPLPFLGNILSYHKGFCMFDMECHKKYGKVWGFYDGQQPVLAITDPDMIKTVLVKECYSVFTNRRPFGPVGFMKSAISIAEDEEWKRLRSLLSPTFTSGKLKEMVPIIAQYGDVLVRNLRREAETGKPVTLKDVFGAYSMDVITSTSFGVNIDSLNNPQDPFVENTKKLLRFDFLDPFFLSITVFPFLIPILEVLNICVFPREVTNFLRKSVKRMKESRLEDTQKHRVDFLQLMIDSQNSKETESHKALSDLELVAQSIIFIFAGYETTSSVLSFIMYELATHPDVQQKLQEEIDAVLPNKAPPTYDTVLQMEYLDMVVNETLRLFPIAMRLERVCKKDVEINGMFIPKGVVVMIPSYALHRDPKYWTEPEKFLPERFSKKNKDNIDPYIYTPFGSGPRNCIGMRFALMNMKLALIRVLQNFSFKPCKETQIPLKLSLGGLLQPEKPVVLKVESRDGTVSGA
Sequence of CYP2C9 (P11712 whole entry): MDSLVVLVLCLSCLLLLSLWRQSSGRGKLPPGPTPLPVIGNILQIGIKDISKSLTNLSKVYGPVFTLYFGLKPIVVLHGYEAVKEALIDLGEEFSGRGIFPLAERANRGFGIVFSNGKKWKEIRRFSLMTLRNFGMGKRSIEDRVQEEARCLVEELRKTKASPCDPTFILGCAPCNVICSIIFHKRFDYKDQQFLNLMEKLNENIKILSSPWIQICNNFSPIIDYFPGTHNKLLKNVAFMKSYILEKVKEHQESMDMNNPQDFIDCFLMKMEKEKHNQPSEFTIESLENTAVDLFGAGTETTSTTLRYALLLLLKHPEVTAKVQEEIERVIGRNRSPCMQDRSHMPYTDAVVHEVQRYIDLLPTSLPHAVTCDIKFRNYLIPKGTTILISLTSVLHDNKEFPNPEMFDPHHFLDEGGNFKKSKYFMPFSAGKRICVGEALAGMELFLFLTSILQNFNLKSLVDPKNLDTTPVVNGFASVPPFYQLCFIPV
Sequence of Cytochrome P450 3A4 (P08684 whole entry): as the sequence (P08684 whole entry) above
Sequence of Cytochrome P450 2C9 (P11712 whole entry): as the sequence (P11712 whole entry) above
Sequence of Cytochrome P450 2D6 (P10635 whole entry): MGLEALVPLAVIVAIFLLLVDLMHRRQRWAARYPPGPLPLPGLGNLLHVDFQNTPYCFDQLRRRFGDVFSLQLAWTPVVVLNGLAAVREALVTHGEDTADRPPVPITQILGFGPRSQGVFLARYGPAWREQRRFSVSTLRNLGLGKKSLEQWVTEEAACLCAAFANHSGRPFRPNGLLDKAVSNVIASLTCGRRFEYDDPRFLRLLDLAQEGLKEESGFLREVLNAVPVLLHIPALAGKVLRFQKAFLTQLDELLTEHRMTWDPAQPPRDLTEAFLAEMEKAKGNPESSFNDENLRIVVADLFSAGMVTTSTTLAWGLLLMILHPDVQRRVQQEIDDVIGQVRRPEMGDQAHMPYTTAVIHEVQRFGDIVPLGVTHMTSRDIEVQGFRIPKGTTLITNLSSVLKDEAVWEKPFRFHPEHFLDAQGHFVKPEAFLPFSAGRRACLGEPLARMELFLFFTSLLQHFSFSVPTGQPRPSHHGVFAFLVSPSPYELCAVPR

- inhibition [1]: 39%
Compound: COc1ccccc1NC(=O)N1CC(c2nc(-c3ccc4ccccc4n3)no2)C1
- inhibition at 10 µM [2]: 28%

- IC50 [3]: 1000 nM
- IC50 [4]: 4500 nM
- logD [5]: 2.85
- inhibition at 10 µM [6]: 44%
- microsomal CLint [7]: 174 µL/min/mg
- inhibition at 10 µM [8]: 35%
- IC50 [9]: 430 nM
Compound: Cn1c(-c2noc(C3CCN(C(=O)Nc4ccccc4Cl)CC3)n2)nc2ccccc21

- inhibition [10]: 65%
- IC50 [3]: 2500 nM
- IC50 [9]: 2700 nM
Compound: O=C(NC1CCC(O)CC1)N1CCC(c2nc(-c3ccc4ccccc4n3)no2)CC1 (stereo not drawn)

- half-life [11]: 1.1 h
- microsomal CLint [12]: 8 µL/min/mg
- IC50 [4]: 39 nM
- clearance [13]: 20 mL/min/kg
- inhibition (INH) [14]: Not Active
- logD [5]: 2.67
- Activity [15]: Not Active
- microsomal CLint [7]: 61 µL/min/mg
- clearance [16]: 32 mL/min/kg
- half-life [17]: 1.3 h
- IC50 [9]: 5 nM
Compound: O=C(NC1CCC(F)(F)CC1)N1CCN(c2nc(-c3ccc4ccccc4n3)no2)CC1

- inhibition [18]: 63%
Compound: Cc1cccnc1-c1noc(C2CCN(C(=O)Nc3ccccc3Cl)CC2)n1

- inhibition [19]: 68%
- IC50 [3]: > 2500 nM
Compound: COc1ccc(NC(=O)N2CCC(c3nc(-c4ccc5ccccc5n4)no3)CC2)cc1

- bioavailability [20]: 24%
- microsomal CLint [21]: 54 µL/min/mg
- half-life [11]: 1.4 h
- IC50 [3]: 45 nM
- microsomal CLint [12]: 60 µL/min/mg
- IC50 [4]: 180 nM
- clearance [13]: 16 mL/min/kg
- inhibition (INH) [14]: Not Active
- logD [5]: 2.76
- Activity [15]: Not Active
- microsomal CLint [7]: 189 µL/min/mg
- clearance [16]: 54 mL/min/kg
- half-life [17]: 1.1 h
- IC50 [9]: 53 nM
Compound: O=C(NC1CCCCC1)N1CCN(c2nc(-c3ccc4ccccc4n3)no2)CC1
- IC50 [22]: > 30000 nM

- IC50 [23]: > 25000 nM
- IC50 [3]: 170 nM
- IC50 [24]: > 25000 nM
- IC50 [4]: 700 nM
- logD [5]: 2.95
- IC50 [25]: > 25000 nM
- IC50 [9]: 140 nM
Compound: O=C(Nc1ccccc1Cl)N1CCN(c2nc(-c3ccc4ccccc4n3)no2)CC1
- IC50 [22]: 12000 nM

- bioavailability [20]: 38%
- microsomal CLint [21]: 65 µL/min/mg
- IC50 [3]: 380 nM
- microsomal CLint [12]: 45 µL/min/mg
- fraction unbound [26]: 0.01
- IC50 [4]: 3500 nM
- logD [5]: 4.25
- fraction unbound [27]: 0.005
- inhibition at 10 µM [6]: 62%
- microsomal CLint [7]: > 200 µL/min/mg
- clearance [16]: 11 mL/min/kg
- inhibition at 10 µM [8]: 58%
- IC50 [9]: 510 nM
Compound: O=C(Nc1ccccc1Cl)N1CCC(c2nc(-c3ccc4ccccc4n3)no2)CC1
- inhibition [28]: 62%

- inhibition [1]: 38%
Compound: COc1ccccc1NC(=O)N1CCC(c2nc(-c3ccc4ccccc4n3)no2)C1 (stereo not drawn)
- inhibition at 10 µM [2]: 15%

- IC50 [3]: 4700 nM
Compound: COc1ccccc1NC(=O)N1CCC(c2nnc(-c3ccc4ccccc4n3)o2)CC1
- inhibition at 20 µM [29]: 57%

- inhibition [30]: 51%
Compound: COc1ccccc1NC(=O)N1CCC(c2nc(-c3ncccc3C)no2)CC1

Source: ChEMBL document CHEMBL1821555, “Identification of a series of 4-[3-(quinolin-2-yl)-1,2,4-oxadiazol-5-yl]piperazinyl ureas as potent smoothened antagonist hedgehog pathway inhibitors” (Bioorg Med Chem Lett, 2011)
